Experimental data: US6365753B1, “Phthalimides and herbicide containing the same as active component” (Mitsubishi Chemical Corporation, priority 1998, dated 2002)

What was measured:
Type in all cases: in vivo
Brassica juncea [1] = test: Foliar treatment test (1) post-emergence application; settings: foliar treatment post-emergence at 1.0- to 2.0-leaf stage, 10 g/a active ingredient, 21st day from treatment; herbicidal index; further: ranges in brackets are in %
Procedure: (§1) Volcanic ash soil from a field was put in a resin-made pot having an area of 200 cm^2. After fertilization, the seeds of Brassica juncea, Ipomoea purpurea, Echinochloa crus-galli and Alopeculus aequalis were cast on the soil and uniformly covered with the soil.
(§2) Cultivation was continued in a greenhouse, and when the weeds reached the 1.0- to 2.0-leaf stage, a prescribed amount of the emulsifiable concentrate comprising the compound of the invention as an active ingredient which was prepared in Formulation Example 3 as diluted with water was sprayed uniformly to the weeds by means of a small-sized power pressure spray to give 10 g of the active ingredient per are.
(§3) Thereafter, cultivation was further continued in the greenhouse, and the herbicidal effect was examined on the 21st day from the treatment. The results obtained are shown in Table 6 (the compound numbers in Table 6 correspond to those in Tables 1 and 2). The herbicidal effect was evaluated based on the same criteria as in Test Example 1.

Alopeculus aequalis = test: as above; settings: foliar treatment post-emergence at 1.0- to 2.0-leaf stage, 10 g/a active ingredient, 21st day from treatment; herbicidal index; further: ranges in brackets are in %
Procedure: as §1, §2, §3

Echinochloa crus-galli [2] = test: as above; settings: foliar treatment post-emergence at 1.0- to 2.0-leaf stage, 10 g/a active ingredient, 21st day from treatment; herbicidal index
Procedure: as §1, §2, §3

Ipomoea purpurea = test: as above; settings: foliar treatment post-emergence at 1.0- to 2.0-leaf stage, 10 g/a active ingredient, 21st day from treatment; herbicidal index; further: ranges in brackets are in %
Procedure: as §1, §2, §3

Echinochloa crus-galli [3] = test: Submerged treatment test; settings: 10 g/a active ingredient, treated 5th day from sowing, examined on the 2.8th day from treatment, herbicidal index; further: ranges in brackets are in %
Procedure: (§4) Alluvial soil from a paddy field was put in a resin-made pot having an area of 200 cm^2. After fertilization, an adequate amount of water was added, and the soil was puddled and leveled. Seeds of Echinochloa crus-galli, Monochoria vaginalis, Rotala indica and Scirpus juncoides were sowed within a layer 0.5 cm below the surface of the soil. Water was poured onto the soil to keep a water depth of 3.5 cm.
(§5) On the 5th day from the sowing, the emulsifiable concentrate containing the compound of the invention as an active ingredient which was prepared in Formulation Example 3 was diluted with water. A prescribed amount of the diluted composition was dropped to the water so as to give 10 g of the active ingredient per are.
(§6) Cultivation was continued in a greenhouse, and the herbicidal effect was examined on the […] from the treatment. The results obtained are shown in Table 4 (the compound numbers in Table 4 correspond to those in Tables 1 and 2). The herbicidal effect was evaluated in terms of herbicidal index based on Y(%) obtained from equation:
(§7) y=[1−(Weight of weeds above the ground in a treated pot)/(Weight of weeds above the ground in a non-treated pot)]×100 (%)

Rotala indica = test: Submerged treatment test; settings: 10 g/a active ingredient, treated 5th day from sowing, examined on the 2.8th day from treatment, herbicidal index; further: ranges in brackets are in %
Procedure: as §4, §5, §6, §7

Monochoria vaginalis = test: Submerged treatment test; settings: 10 g/a active ingredient, treated 5th day from sowing, examined on the 2.8th day from treatment, herbicidal index; further: ranges in brackets are in %
Procedure: as §4, §5, §6, §7

Scirpus juncoides = test: Submerged treatment test; settings: 10 g/a active ingredient, treated 5th day from sowing, examined on the 2.8th day from treatment, herbicidal index; further: ranges in brackets are in %
Procedure: as §4, §5, §6, §7

wheat = test: Foliar treatment test (3) post emergence application, crop injury; settings: 3.0 to 4.0-leaf stage, 0.125% X-77, 21st day, index
Procedure: (§8) Volcanic ash soil from a field was put in a resin-made pot having an area of 200 cm^2. After fertilization, the seeds of Galim spurium, Brassica juncea, and wheat were cast on the soil and covered with the soil uniformly. Cultivation was continued in a greenhouse until the plants reached to the 3.0 to 4.0-leaf stage.
(§9) The emulsifiable concentrate comprising compound No. 5 of the present invention, comparative compound (B) or comparative compound (C) as an active ingredient which was prepared in accordance with Formulation Example 3 was diluted with water containing 0.125% of a spreading agent X-77 (trade name, Valent USA Co.) so that a spray of 250 L/ha might give a prescribed amount of the active ingredient. The diluted composition was uniformly sprayed to the Galium spurium plant, the Brassica juncea plant, and the wheat plant by means of a small-sized power pressure spray.
(§10) Thereafter, cultivation was continued in the greenhouse, and the herbicidal effect and the injury to the crop were examined on the 21st day from the treatment. The herbicidal effect and the injury to the crop were evaluated on the same criteria as in Test Example 4.

Brassica juncea [4] = test: Foliar treatment test (3) post emergence application; settings: 3.0 to 4.0-leaf stage, 0.125% X-77, 21st day, index
Procedure: as §8, §9, §10

Galium spurium = test: as above; settings: 3.0 to 4.0-leaf stage, 0.125% X-77, 21st day, index
Procedure: as §8, §9, §10

Digitaria ciliaris = test: Soil treatment test pre-emergence application; settings: 10 g/a active ingredient, 28th day from treatment, herbicidal index; further: ranges in brackets are in %
Procedure: (§11) Volcanic ash soil from a field was put in a resin-made pot having an area of 200 cm^2. After fertilization, soil previously mixed uniformly with the seeds of Digitaria ciliaris, Setaria viridis, Chenopodium album and Polygonum lapathifolium was scattered on the soil. The emulsifiable concentrate comprising the compound of the invention as an active ingredient which was obtained in Formulation Example 3 was diluted with water, and a prescribed amount of the diluted composition was sprayed uniformly to the surface of the soil by means of a small-sized power pressure spray to give 10 g of the active ingredient per are.
as §3, with “was” for “was further”, “in a” for “in the”, “the 28th” for “the 21st”, “Table 5” for “Table 6”

Setaria viridis = test: Soil treatment test pre-emergence application; settings: 10 g/a active ingredient, 28th day from treatment, herbicidal index; further: ranges in brackets are in %
Procedure: as §11
as §3, with “was” for “was further”, “in a” for “in the”, “the 28th” for “the 21st”, “Table 5” for “Table 6”

Chenopodium album = test: Soil treatment test pre-emergence application; settings: 10 g/a active ingredient, 28th day from treatment, herbicidal index; further: ranges in brackets are in %
Procedure: as §11
as §3, with “was” for “was further”, “in a” for “in the”, “the 28th” for “the 21st”, “Table 5” for “Table 6”

Polygonum lapathifolium = test: Soil treatment test pre-emergence application; settings: 10 g/a active ingredient, 28th day from treatment, herbicidal index; further: ranges in brackets are in %
Procedure: as §11
as §3, with “was” for “was further”, “in a” for “in the”, “the 28th” for “the 21st”, “Table 5” for “Table 6”
Wherever Herbicidal Effect Echinochloa crus-galli is given: ranges in brackets are in %.

| Compound | Herbicidal Effect Brassica juncea (Brassica juncea [1]) | Herbicidal Effect Alopeculus sequalis (Alopeculus aequalis) | Herbicidal Effect Echinochloa crus-galli (Echinochloa crus-galli [2]) | Herbicidal Effect Ipompoea-purpurea (Ipomoea purpurea) | Herbicidal Effect Echinochloa crus-galli (Echinochloa crus-galli [3]) | Herbicidal Effect Rotala indica (Rotala indica) | Herbicidal Effect Monochoria vaginalis (Monochoria vaginalis) | Herbicidal Effect Scirpus juncoides (Scirpus juncoides) | further results |
| --- | --- | --- | --- | --- | --- | --- | --- | --- | --- |
| CCOC(=O)C(Cl)Cc1cc(N2C(=O)c3ccccc3C2=O)c(F)cc1Cl (centres unmarked) [Compound 5, ethyl 2-chloro-3-(2-chloro-4-fluoro-5-phthalimidophenyl)propionate] | 5 (91-100) | 1 (6-30) | 3 (51-70) | 5 (91-100) | 4 (71-90) | 5 (91-100) | 5 (91-100) | 4 (71-90) | Crop Injury Wheat (wheat; 12.5 ga.i./ha): 0 (0); Crop Injury Wheat (wheat; 25.0 ga.i./ha): 0 (0); Crop Injury Wheat (wheat; 50.0 ga.i./ha): 1 (1-9); Herbicidal Effect Brassica juncea (Brassica juncea [4]; 12.5 ga.i./ha): 10 (100); Herbicidal Effect Brassica juncea (Brassica juncea [4]; 25.0 ga.i./ha): 10 (100); Herbicidal Effect Brassica juncea (Brassica juncea [4]; 50.0 ga.i./ha): 10 (100); Herbicidal Effect Galium spurium (Galium spurium; 12.5 ga.i./ha): 10 (100); Herbicidal Effect Galium spurium (Galium spurium; 25.0 ga.i./ha): 10 (100); Herbicidal Effect Galium spurium (Galium spurium; 50.0 ga.i./ha): 10 (100) |
| CCCCOC(=O)C(Cl)Cc1cc(N2C(=O)c3ccccc3C2=O)c(F)cc1Cl (centres unmarked) [Compound 8] | 5 (91-100) | 1 (6-30) | 1 (6-30) | 5 (91-100) | 5 (91-100) | 5 (91-100) | 5 (91-100) | 5 (91-100) |  |
| O=C(OC1CCCC1)C(Cl)Cc1cc(N2C(=O)c3ccccc3C2=O)c(F)cc1Cl (centres unmarked) [Compound 9] | 5 (91-100) | 1 (6-30) | 2 (31-50) | 5 (91-100) | 5 (91-100) | 5 (91-100) | 5 (91-100) | 5 (91-100) |  |
| CCCNC(=O)C(Cl)Cc1cc(N2C(=O)c3ccccc3C2=O)c(F)cc1Cl (centres unmarked) [Compound 10, 2-Chloro-3-(2-chloro-4-fluoro-5-phthalimidophenyl)-N-propylpropionamide] | 5 (91-100) | 3 (51-70) | 4 (71-90) | 5 (91-100) |  |  |  |  |  |
| CC(C)CNC(=O)C(Cl)Cc1cc(N2C(=O)c3ccccc3C2=O)c(F)cc1Cl (centres unmarked) [Compound 11] | 5 (91-100) | 4 (71-90) | 4 (71-90) | 5 (91-100) |  |  |  |  | Herbicidal Effect Digitaria ciliaris (Digitaria ciliaris): 4 (71-90); Herbicidal Effect Setaria viridis (Setaria viridis): 4 (71-90); Herbicidal Effect Chenopodium album (Chenopodium album): 5 (91-100); Herbicidal Effect Polygonum lapathifolium (Polygonum lapathifolium): 5 (91-100) |
| COC(=O)C=Cc1cc(N2C(=O)c3ccccc3C2=O)c(F)cc1Cl [Compound 16] | 5 (91-100) | 1 (6-30) | 3 (51-70) | 5 (91-100) |  |  |  |  |  |
| CCOC(=O)/C=C/c1cc(N2C(=O)c3ccccc3C2=O)c(F)cc1Cl [Compound 17, Ethyl 3-(2-Chloro-4-fluoro-5-phthalimidophenyl)acrylate] | 5 (91-100) | 1 (6-30) | 1 (6-30) | 5 (91-100) |  |  |  |  |  |
